{
  "source": "ChEMBL document CHEMBL4177532",
  "about": "“Antibacterial Nerol Cinnamates from the Australian Plant Eremophila longifolia” (J Nat Prod, 2017)",
  "key": {"[1]": {"test_system": "Escherichia coli", "assay": "Antimicrobial activity against Escherichia coli ATCC 25922 by microdilution plate based method", "format": "functional"}, "[2]": {"test_system": "Acinetobacter baumannii", "assay": "Antimicrobial activity against Acinetobacter baumannii ATCC 19606 by microdilution plate based method", "format": "functional", "conditions": "ATCC 19606 = CIP 70.34 = JCM 6841"}, "[3]": {"test_system": "Staphylococcus aureus", "assay": "microbe, parasite or virus in culture", "format": "functional", "conditions": "ATCC 43300", "description": "Antimicrobial activity against methicillin-sensitive Staphylococcus aureus ATCC 43300 by microdilution plate based method"}, "[4]": {"test_system": "Staphylococcus aureus", "assay": "Antimicrobial activity against glycopeptide intermediate resistant Staphylococcus aureus NARSA NRS 17 by microdilution plate based method", "format": "functional"}, "[5]": {"test_system": "Staphylococcus aureus", "assay": "Antimicrobial activity against vancomycin-resistant Staphylococcus aureus NARSA VRS 1 by microdilution plate based method", "format": "functional"}, "[6]": {"test_system": "Streptococcus pneumoniae", "assay": "Antimicrobial activity against multidrug resistant Streptococcus pneumoniae ATCC 700677 by microdilution plate based method", "format": "functional"}, "[7]": {"test_system": "Enterococcus faecium", "assay": "Antimicrobial activity against vancomycin-resistant and VanA expressing Enterococcus faecium ATCC 51559 by microdilution plate based method", "format": "functional"}, "[8]": {"test_system": "Candida albicans", "assay": "Antimicrobial activity against Candida albicans ATCC 90028 by microdilution plate based method", "format": "functional"}, "[9]": {"assay": "Cytotoxicity against HEK293 cells assessed as reduction in cell viability incubated for 24 hrs by resazurin based assay", "conditions": "human"}, "[10]": {"test_system": "Cryptococcus neoformans", "assay": "Antimicrobial activity against Cryptococcus neoformans ATCC 208821 by microdilution plate based method", "format": "functional"}, "[11]": {"test_system": "HepG2", "assay": "Cytotoxicity against human HepG2 cells assessed as reduction in cell viability incubated for 24 hrs by resazurin based assay", "format": "functional", "conditions": "HepG2, 24 h"}, "[12]": {"assay": "Drug metabolism assessed as compound auto-oxidation", "format": "physicochemical"}, "[13]": {"test_system": "Staphylococcus aureus", "assay": "Antimicrobial activity against Staphylococcus aureus", "format": "functional"}, "[14]": {"test_system": "Escherichia coli", "assay": "Antimicrobial activity against Escherichia coli", "format": "functional"}, "[15]": {"test_system": "Trypanosoma brucei brucei", "assay": "Antitrypanosomal activity against Trypanosoma brucei brucei GUTat 3.1 incubated for 72 hrs by alamar blue dye based assay", "format": "functional, organism-based", "conditions": "GUTat 3.1, 72 h"}, "[16]": {"test_system": "MRC5", "assay": "Cytotoxicity against human MRC5 cells", "format": "cell-based"}},
  "data": [
    {"smiles": "COc1cc(/C=C/C(=O)OC/C=C(/C)CCC=C(C)C)ccc1O", "values": [
      {"measurement": "MIC", "setting": "[1]", "value": "> 64", "unit": "µg/mL"},
      {"measurement": "MIC", "setting": "[2]", "value": "> 64", "unit": "µg/mL"},
      {"measurement": "MIC", "setting": "[3]", "value": 16, "unit": "µg/mL"},
      {"measurement": "MIC", "setting": "[4]", "value": 16, "unit": "µg/mL"},
      {"measurement": "MIC", "setting": "[5]", "value": "16 to 32", "unit": "µg/mL"},
      {"measurement": "MIC", "setting": "[6]", "value": "8 to 16", "unit": "µg/mL"},
      {"measurement": "MIC", "setting": "[7]", "value": 8, "unit": "µg/mL"},
      {"measurement": "MIC", "setting": "[8]", "value": "> 64", "unit": "µg/mL"},
      {"measurement": "CC50 at 24 h", "setting": "[9]", "value": 273, "unit": "µM"},
      {"measurement": "MIC", "setting": "[10]", "value": "32 to 64", "unit": "µg/mL"},
      {"measurement": "CC50", "setting": "[11]", "value": 300, "unit": "µM"},
      {"measurement": "Drug metabolism", "setting": "[12]", "value": "Metabolite_Detected"}
    ]},
    {"smiles": "CC(C)=CCC/C(C)=C/COC(=O)/C=C/c1ccccc1", "values": [
      {"measurement": "MIC", "setting": "[13]", "value": 5000, "unit": "µg/mL"},
      {"measurement": "MIC", "setting": "[14]", "value": 5000, "unit": "µg/mL"}
    ]},
    {"smiles": "CC(C)=CCC/C(C)=C\\COC(=O)/C=C/c1ccc(O)cc1", "values": [
      {"measurement": "MIC", "setting": "[1]", "value": "> 64", "unit": "µg/mL"},
      {"measurement": "MIC", "setting": "[2]", "value": "> 64", "unit": "µg/mL"},
      {"measurement": "MIC", "setting": "[3]", "value": "> 64", "unit": "µg/mL"},
      {"measurement": "MIC", "setting": "[4]", "value": "> 64", "unit": "µg/mL"},
      {"measurement": "MIC", "setting": "[5]", "value": "> 64", "unit": "µg/mL"},
      {"measurement": "MIC", "setting": "[6]", "value": 64, "unit": "µg/mL"},
      {"measurement": "MIC", "setting": "[7]", "value": 8, "unit": "µg/mL"},
      {"measurement": "MIC", "setting": "[8]", "value": "> 64", "unit": "µg/mL"},
      {"measurement": "CC50 at 24 h", "setting": "[9]", "value": 273, "unit": "µM"},
      {"measurement": "MIC", "setting": "[10]", "value": "32 to 64", "unit": "µg/mL"},
      {"measurement": "CC50", "setting": "[11]", "value": 157, "unit": "µM"},
      {"measurement": "Drug metabolism", "setting": "[12]", "value": "Metabolite_Detected"}
    ]},
    {"smiles": "CC[C@H](C)CCCCC(=O)N[C@@H](CCN)C(=O)N[C@H](C(=O)N[C@@H](CCN)C(=O)N[C@H]1CCNC(=O)[C@H]([C@@H](C)O)NC(=O)[C@H](CCN)NC(=O)[C@H](CCN)NC(=O)[C@H](CC(C)C)NC(=O)[C@@H](Cc2ccccc2)NC(=O)[C@H](CCN)NC1=O)[C@@H](C)O.O=S(=O)(O)O.O=S(=O)(O)O", "values": [
      {"measurement": "MIC", "setting": "[1]", "value": 0.3, "unit": "µg/mL"},
      {"measurement": "MIC", "setting": "[2]", "value": 0.3, "unit": "µg/mL"}
    ]},
    {"smiles": "CCCCCCCCCC(=O)N[C@@H](Cc1c[nH]c2ccccc12)C(=O)N[C@@H](CC(N)=O)C(=O)N[C@@H](CC(=O)O)C(=O)N[C@@H]1C(=O)NCC(=O)N[C@@H](CCCN)C(=O)N[C@@H](CC(=O)O)C(=O)N[C@H](C)C(=O)N[C@@H](CC(=O)O)C(=O)NCC(=O)N[C@H](CO)C(=O)N[C@@H]([C@H](C)CC(=O)O)C(=O)N[C@@H](CC(=O)c2ccccc2N)C(=O)O[C@@H]1C", "note": "[DAPTOMYCIN]", "values": [
      {"measurement": "MIC", "setting": "[3]", "value": 4, "unit": "µg/mL"},
      {"measurement": "MIC", "setting": "[4]", "value": "16 to 32", "unit": "µg/mL"},
      {"measurement": "MIC", "setting": "[5]", "value": 8, "unit": "µg/mL"},
      {"measurement": "MIC", "setting": "[6]", "value": 8, "unit": "µg/mL"},
      {"measurement": "MIC", "setting": "[7]", "value": 32, "unit": "µg/mL"}
    ]},
    {"smiles": "CC(C)=CCC/C(C)=C\\CC/C(C)=C\\COC(=O)/C=C/c1ccc(O)c(O)c1", "note": "[FARNESYL CAFFEATE]", "values": [
      {"measurement": "IC50", "setting": "[15]", "value": 0.23, "unit": "µg/mL"},
      {"measurement": "IC50", "setting": "[16]", "value": 13.3, "unit": "µg/mL"}
    ]},
    {"smiles": "OC(Cn1cncn1)(Cn1cncn1)c1ccc(F)cc1F", "note": "[FLUCONAZOLE]", "values": [
      {"measurement": "MIC", "setting": "[8]", "value": "0.3 to 0.5", "unit": "µg/mL"},
      {"measurement": "MIC", "setting": "[10]", "value": 8, "unit": "µg/mL"}
    ]},
    {"smiles": "CC/C(=C(\\c1ccccc1)c1ccc(OCCN(C)C)cc1)c1ccccc1", "note": "[TAMOXIFEN]", "values": [
      {"measurement": "CC50 at 24 h", "setting": "[9]", "value": "[…]"},
      {"measurement": "CC50", "setting": "[11]", "value": "[…]"}
    ]},
    {"smiles": "CN[C@H](CC(C)C)C(=O)N[C@H]1C(=O)N[C@@H](CC(N)=O)C(=O)N[C@H]2C(=O)N[C@H]3C(=O)N[C@H](C(=O)N[C@H](C(=O)O)c4cc(O)cc(O)c4-c4cc3ccc4O)[C@H](O)c3ccc(c(Cl)c3)Oc3cc2cc(c3O[C@@H]2O[C@H](CO)[C@@H](O)[C@H](O)[C@H]2O[C@H]2C[C@](C)(N)[C@H](O)[C@H](C)O2)Oc2ccc(cc2Cl)[C@H]1O.Cl", "note": "[VANCOMYCIN HYDROCHLORIDE]", "values": [
      {"measurement": "MIC", "setting": "[4]", "value": "> 32", "unit": "µg/mL"},
      {"measurement": "MIC", "setting": "[5]", "value": "> 32", "unit": "µg/mL"},
      {"measurement": "MIC", "setting": "[6]", "value": 2, "unit": "µg/mL"},
      {"measurement": "MIC", "setting": "[7]", "value": "> 32", "unit": "µg/mL"}
    ]}
  ]
}
